Results published in ChEMBL document CHEMBL5365466, “Discovery of Triazolyl Derivatives of Cucurbitacin B Targeting IGF2BP1 against Non-Small Cell Lung Cancer” (J Med Chem, 2023).
Active and inactive are the calls of the source. The calls are words filed in the database; no cut-off is given here.

Key:
[1] = test system: A549; assay: Induction of apoptosis in human A549 cells at 0.5 uM incubated for 48 hrs by Annexin V-FITC/PI staining based flow cytometric analysis; format: functional
[2] = test system: A549; assay: Antitumor activity against human A549 cells xenografted in BALB/c mouse assessed as reduction in Ki67 expression in tumor at 0.5 mg/kg,ip administrated for 21 days by immunohistochemical analysis; format: functional, organism-based; conditions: time 21.0 day
[3] = Selectivity index, ratio of IC50 for antiproliferative activity against human L02 cells to IC50 for antiproliferative activity against human MCF7 cells; format: toxicity, cell-based; conditions: L02 cells versus MCF7 cells, read-out: Ratio IC50
[4] = Selectivity index, ratio of IC50 for antiproliferative activity against human L02 cells to IC50 for antiproliferative activity against human CFPAC-1 cells
[5] = test system: A549; assay: Induction of cell cycle arrest in human A549 cells assessed as accumulation of cells at G2 phase at 0.2 uM incubated for 24 hrs by PI staining based flow cytometric analysis (reference value: 9.26 %); format: functional
[6] = test system: A549; assay: Antiproliferative activity against human A549 cells assessed as cell growth inhibition incubated for 72 hrs by SRB assay; format: functional, cell-based; conditions: A549, 72 h
[7] = test system: HCT-116; assay: Antiproliferative activity against human HCT-116 cells assessed as cell growth inhibition at 1 uM incubated for 72 hrs by SRB assay; format: functional
[8] = Selectivity index, ratio of IC50 for antiproliferative activity against human L02 cells to IC50 for antiproliferative activity against human BXPC-3 cells; format: toxicity, cell-based; conditions: L02 cells versus BXPC-3 cells, read-out: Ratio IC50
[9] = test system: A549; assay: Induction of cell cycle arrest in human A549 cells assessed as accumulation of cells at G1 phase at 0.2 uM incubated for 24 hrs by PI staining based flow cytometric analysis (reference value: 65.6 %); format: functional
[10] = test system: A549; assay: Induction of apoptosis in human A549 cells assessed as increase in PARP cleavage incubated for 48 hrs by Western blotting analysis; format: functional, cell-based
[11] = test system: A549; assay: Antitumor activity against human A549 cells xenografted in BALB/c mouse assessed as vacuole formation at 0.5 mg/kg,ip administrated for 21 days by hematoxylin and eosin staining based microscopic analysis; format: functional, organism-based; conditions: time 21.0 day
[12] = test system: HepG2; assay: Antiproliferative activity against human HepG2 cells assessed as cell growth inhibition incubated for 72 hrs by SRB assay; format: functional, cell-based; conditions: HepG2, 72 h
[13] = test system: A549; assay: Antiproliferative activity against wild type human A549 cells assessed as cell growth inhibition incubated for 72 hrs by SRB assay; format: functional, cell-based; conditions: A549, 72 h
[14] = test system: A549; assay: Induction of autophagy in human A549 cells assessed as upregulation of p62 protein expression at 0.1 to 0.5 uM incubated for 48 hrs by Western blotting analysis; format: functional, cell-based; conditions: dose 0.1-0.5 µM
[15] = Selectivity index, ratio of IC50 for antiproliferative activity against human L02 cells to IC50 for antiproliferative activity against human HepG2 cells; format: toxicity, cell-based; conditions: L02 cells versus HepG2 cells, read-out: Ratio IC50
[16] = Acute toxicity in C57BL/6J mouse assessed as death at 0.75 mg/kg,ip measured after 14 days; format: organism-based; conditions: in vivo, 336 h, time 14 day
[17] = molecular target: T1, Insulin-like growth factor 2 mRNA-binding protein 1 (Homo sapiens, UniProt Q9NZI8); assay: Binding affinity to IGF2BP1 in human A549 cells assessed as protein stabilization at 1 uM at 55 degreeC incubated for 2 hrs by CETSA; format: cell-based
[18] = test system: A549; assay: Induction of cell cycle arrest in human A549 cells assessed as accumulation of cells at G1 phase at 0.5 uM incubated for 24 hrs by PI staining based flow cytometric analysis (reference value: 65.6 %); format: functional
[19] = test system: HCT-116; assay: Antiproliferative activity against human HCT-116 cells assessed as cell growth inhibition incubated for 72 hrs by SRB assay; format: functional, cell-based; conditions: HCT-116, 72 h
[20] = test system: MCF7; assay: Antiproliferative activity against human MCF7 cells assessed as cell growth inhibition incubated for 72 hrs by SRB assay; format: functional, cell-based; conditions: MCF7, 72 h
[21] = test system: HeLa; assay: Antiproliferative activity against human HeLa cells assessed as cell growth inhibition incubated for 72 hrs by SRB assay; format: functional, cell-based
[22] = molecular target: T1, Insulin-like growth factor 2 mRNA-binding protein 1; assay: Binding affinity to IGF2BP1 in human A549 cells assessed as protein stabilization at 1 uM at 46 degreeC incubated for 2 hrs by CETSA; format: cell-based
[23] = test system: A549; assay: Antitumor activity against human A549 cells xenografted in BALB/c mouse assessed as tumor growth inhibition at 0.5 mg/kg,ip administrated for 21 days; format: functional; conditions: A549, 504 h, time 21 day, read-out: TGI
[24] = Selectivity index, ratio of IC50 for antiproliferative activity against human L02 cells to IC50 for antiproliferative activity against human HCT-116 cells; format: toxicity, cell-based; conditions: L02 cells versus HCT-116 cells, read-out: Ratio IC50
[25] = Selectivity index, ratio of IC50 for antiproliferative activity against human L02 cells to IC50 for antiproliferative activity against human PANC-1 cells

T1 sequence (Q9NZI8 whole entry): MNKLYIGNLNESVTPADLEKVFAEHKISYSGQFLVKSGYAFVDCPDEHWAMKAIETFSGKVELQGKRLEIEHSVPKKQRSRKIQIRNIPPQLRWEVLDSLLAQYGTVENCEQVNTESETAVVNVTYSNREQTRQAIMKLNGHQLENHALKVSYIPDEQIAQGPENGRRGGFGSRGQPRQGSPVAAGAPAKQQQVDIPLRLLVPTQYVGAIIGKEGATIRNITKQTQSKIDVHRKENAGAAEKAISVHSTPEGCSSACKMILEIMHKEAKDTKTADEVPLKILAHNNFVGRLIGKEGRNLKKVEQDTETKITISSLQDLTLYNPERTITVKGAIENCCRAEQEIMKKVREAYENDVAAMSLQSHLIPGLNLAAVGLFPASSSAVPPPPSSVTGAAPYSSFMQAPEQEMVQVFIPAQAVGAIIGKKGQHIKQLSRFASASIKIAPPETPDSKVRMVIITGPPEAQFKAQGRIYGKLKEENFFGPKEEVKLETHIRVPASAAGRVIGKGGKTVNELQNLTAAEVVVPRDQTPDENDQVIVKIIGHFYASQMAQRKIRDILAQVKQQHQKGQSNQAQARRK

Question: Which Activity [1] does the source give for `CC(=O)OC(C)(C)/C=C/C(=O)[C@](C)(O)[C@H]1[C@H](O)C[C@@]2(C)[C@@H]3CC=C4[C@@H](C[C@H](OC(=O)Cn5ncn(-c6ccc(F)cc6)c5=O)C(=O)C4(C)C)[C@]3(C)C(=O)C[C@]12C` here?
Answer: The Activity was 36.7%.

Question: What about the Activity [2] of the same molecule?
Answer: The Activity was “Active”.

Question: And the selectivity ratio [3]?
Answer: The selectivity ratio was 1.79.

Question: What about the “Ratio IC50” value [4] of the same molecule?
Answer: The value was 2.7.

Question: What about the Activity [5] of the same molecule?
Answer: Its Activity is 16.4%.

Question: And the IC50 [6]?
Answer: The IC50 was 9 nM.

Question: What about the inhibition at 1 µM [7] of the same molecule?
Answer: The inhibition at 1 µM was 84.1%.

Question: And the selectivity ratio [8]?
Answer: Its selectivity ratio is 5.56.

Question: And the Activity [9]?
Answer: The Activity was 63.6%.

Question: What about the Activity [10] of the same molecule?
Answer: The Activity was “Dose-Dependent Effect”.

Question: And the Activity [11]?
Answer: The Activity was “Active”.

Question: And the IC50 [12]?
Answer: The IC50 was 80 nM.

Question: And the IC50 [13]?
Answer: The IC50 was 5 nM.

Question: What about the Activity [14] of the same molecule?
Answer: The Activity was “Dose-Dependent Effect”.

Question: And the selectivity ratio [15]?
Answer: Its selectivity ratio is 1.25.

Question: And the Activity [16]?
Answer: The Activity was “Non-Toxic”.

Question: What about the Activity [17] of the same molecule?
Answer: Its Activity is “Active”.

Question: What about the Activity [18] of the same molecule?
Answer: The Activity was 51.3%.

Question: What about the IC50 [19] of the same molecule?
Answer: Its IC50 is 34 nM.

Question: And the IC50 [20]?
Answer: Its IC50 is 56 nM.

Question: And the IC50 [21]?
Answer: Its IC50 is 15 nM.

Question: What about the Activity [22] of the same molecule?
Answer: Its Activity is “Active”.

Question: What about the inhibition in vivo at 0.5 mg/kg [23] of the same molecule?
Answer: Its inhibition in vivo at 0.5 mg/kg is 80%.

Question: And the selectivity ratio [24]?
Answer: The selectivity ratio was 2.94.

Question: And the “Ratio IC50” value [25]?
Answer: Its value is 1.14.
